Columns and labels:
HeLa cells [1] = assay: Western blotting of p53 in HeLa cells treated with cisplatin; type: cell-based; conditions: 40 μM of cisplatin
Procedure: To investigate the effect of cisplatin on cervix cancer cells, HeLa cells were treated with cisplatin. 24 hours before the treatment, 1×10^6 cells were distributed in 100 mm culture dish and cultured at 37° C. with 5% CO2 and 100% humidity. Then, the cells were treated with 40 μM of cisplatin. 24 hours later, Western blotting was performed to measure the level of p53.

HeLa cells [2] = assay: MTT assay, cytotoxic effect of cisplatin; type: cell-based; conditions: cisplatin 0.625-80 μM for 48 hours
Procedure: The present inventors also investigated cytotoxic effect of cisplatin on HeLa cells by MTT assay. HeLa cells were treated with different concentrations of cisplatin (0.625, 1.25, 2.5, 5, 10, 25, 40, and 80 μM) for 48 hours, followed by MTT assay to measure the cell growth inhibitory effect.

HeLa cells [3] = assay: Long-term combination therapy of E6 siRNA and cisplatin, trypan blue cell count; type: cell-based; conditions: 7th day; siRNA 100 nM transfected twice and/or cisplatin 1.25 μM for 4 days
Procedure: To evaluate cytotoxic effect of the long-term combination therapy of synthetic E6 siRNA and cisplatin chemotherapy on cervix cancer cells, HeLa cells were co-treated for a long period of time.
Then, the single therapy group (treated with 18E6-1 siRNA, 18E6-2 siRNA or cisplatin alone) and the combination therapy group (treated with cisplatin and 18E6-1 siRNA or 18E6-2 siRNA) were compared. To obtain the maximum RNAi efficiency, siRNA transfection was repeated after 24 hours from the first transfection. For the transfection, 13 μl of opti-MEM (Gibco, USA) and 2 μl of oligofectamine were added into a 1.5 ml E-tube. To the other 1.5 ml E-tube were added 100 nM of siRNA and opti-MEM to make total volume […]. 5 minutes later, the content of the E-tube containing oligofectamine was transferred into the other E-tube to make the total volume 200 μl, which stood by for 20 minutes to form a complex. […] On the 7th day of culture, the cells were recovered by treating with trypsin, stained with 0.3% trypan blue solution and counted with hemocytometer.
The cells were cultured in normal growth medium for additional 7 days, and harvested by treating them with trypsin. The cells were stained with 0.3% trypan blue and counted with hemocytometer (FIG. 11). […]

HeLa cells [4] = assay: Cell morphology after single and combination therapy (phase contrast microscope); type: cell-based; conditions: 7th day of the treatment
From the text: The present inventors cultured the cells in normal media additionally for 7 days to observe morphological changes.

HeLa cells [5] = assay: Apoptosis, annexin V and propidium iodide flow cytometry; type: cell-based; conditions: 7th day of the treatment, attached cells
From the text: To examine apoptosis in the cells treated with 18E6-1 siRNA or 18E6-2 siRNA, the cells attached on the 7th day of the treatment were collected, stained with annexin V and propidium iodide (PI) and analyzed by flow cytometry. Apoptosis rates between the single therapy group and the combination therapy group were compared.

HeLa cells [6] = assay: Senescence, SA β-Gal activity staining; type: cell-based
Procedure: The present inventors further investigated whether the combination therapy of cisplatin with 18E6 siRNAs induced HeLa cell senescence. The inventors measured SA β-Gal activity on the 7th day of the treatment. The cells were washed with PBS using a senescence detection kit (BIoVision, USA) and treated with SA-β-gal staining solution at 37° C. for 12 hours. The cells stained with blue were observed under microscope (×100-200).
Three photographs of the cells were taken randomly to investigate the stained cells (FIG. 17).

HeLa-Luc cells = assay: Cervix cancer xenograft model, luciferase bioluminescence tumor size; type: in vivo, balb-C nude mouse; conditions: after 2 weeks; siRNA 2 mg/kg and/or cisplatin 0.5 mg/kg, intraperitoneal, every other day by turns, 7 times
Procedure: To generate the cervix cancer xenograft model, 5×10^6 HeLa-Luc cells were injected subcutaneously into a 5 week old female balb-C nude mouse. 7 days later, tumor generation was confirmed. Then, the mouse was treated with siRNA (2 mg/kg) and cisplatin (0.5 mg/kg) every other day by taking turns, 7 times (intraperitoneal injection).
Isofluran was used as an anesthetic for in vivo imaging. Luciferase activity, which increases with the growth of a tumor, was measured 15 minutes after intraperitoneal injection of luciferin.
Bioluminescence signal released by luciferase was represented as the unit of photons/second/steradian/cm2, and the luciferase signal increases as the tumor grew.

SMILES: N.N.[Cl][Pt][Cl] [cisplatin]
- expression level of p53 (HeLa cells [1]): dramatically increased
- time at which the level of p53 reached the peak (HeLa cells [1]): 24 h
- time for which the high level of p53 was constantly observed (HeLa cells [1]): 48 h
- cell survival rate (HeLa cells [2]): reduced cisplatin dose dependently
- cell growth (cell number) (HeLa cells [3]): not significant
- cell growth observed by microscope (HeLa cells [4]): grown regularly
- apoptosis (HeLa cells [5]): not increased
- number of stained cells in three random photographs (HeLa cells [6]; 7th day of the treatment (FIG. 17)): Only a small amount of cells were stained
- SA-β-Gal stained (blue) cells (HeLa cells [6]; 7th day of the treatment, microscope (FIG. 16)): some of the blue cells
- tumor size (HeLa-Luc cells): not much different

From US8377899B2, “Composition for treatment of cervix cancer” (priority 2006, dated 2013)
